Where only a bound is given, the exact number is not on record here.

A word on the IC50: it is the concentration that inhibits the measured activity by half.

T1 sequence (Q16539 whole entry): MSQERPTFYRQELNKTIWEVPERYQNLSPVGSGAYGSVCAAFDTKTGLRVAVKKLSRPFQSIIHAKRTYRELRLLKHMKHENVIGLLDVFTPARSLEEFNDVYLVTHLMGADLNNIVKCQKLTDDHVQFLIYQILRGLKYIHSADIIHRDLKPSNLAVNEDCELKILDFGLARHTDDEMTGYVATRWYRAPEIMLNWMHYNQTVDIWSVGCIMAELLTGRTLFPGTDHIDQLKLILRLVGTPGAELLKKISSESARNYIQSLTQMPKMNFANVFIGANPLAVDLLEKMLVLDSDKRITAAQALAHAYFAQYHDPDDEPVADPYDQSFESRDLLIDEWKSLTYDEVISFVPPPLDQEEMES

This experiment concerns the target T1, active p38 alpha enzyme (Upstate Biotechnology) (Homo sapiens, UniProt Q16539).
T1 construct: purchased Upstate Biotechnology
Description: p38α biochemical assay (ATP turnover, luminescent detection, Cambrex PKlight). The conditions noted are these: p38α biochemical assay, Table 1 Biological Activity. In outline: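 Active human p38α was incubated with full-length MapkapK2 protein as substrate and 1.4 uM ATP (final) for 2 hours at 30C. Buffer: 200 mM Tris, 100 mM MgCl2, 1.5 mM EGTA, 4 mM CaCl2, 20 mM MOPS, 1 mM EDTA, 1% glycerol, 0.1% β-mercaptoethanol, 1 mg/ml BSA. Total ATP turnover read by luminescence.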
For the compound `CC(C)NC(=O)c1csc(-c2oc(CN3CCN(C(=O)c4ccc(Cl)cc4Cl)CC3)nc2-c2ccc(F)cc2)n1` [Example 489], the IC50 was more than 1000 nM. Regarding `CC(C)NC(=O)c1csc(-c2oc(CN3CCN(C(=O)c4cc(Cl)ccc4Cl)CC3)nc2-c2ccc(F)cc2)n1` [Example 490], the IC50 was more than 1000 nM. As for `CC(C)NC(=O)c1csc(-c2oc(CN3CCN(C(=O)c4cc(F)c(F)c(O)c4F)CC3)nc2-c2ccc(F)cc2)n1` [Example 491], the IC50 is more than 1000 nM. For `CC(C)NC(=O)c1csc(-c2oc(CN3CCN(C(=O)/C=C/c4ccc5c(c4)OCO5)CC3)nc2-c2ccc(F)cc2)n1` [Example 492] the value was more than 1000 nM. For `Cc1ccc(C(=O)CCC(=O)N2CCN(Cc3nc(-c4ccc(F)cc4)c(-c4nc(C(=O)NC(C)C)cs4)o3)CC2)cc1` [Example 493] the value was more than 1000 nM; for `CCCCCc1ccc(C(=O)N2CCN(Cc3nc(-c4ccc(F)cc4)c(-c4nc(C(=O)NC(C)C)cs4)o3)CC2)cc1` [Example 494], more than 1000 nM. `CC(C)NC(=O)c1csc(-c2oc(CN3CCN(C(=O)c4cc(F)c(F)cc4Cl)CC3)nc2-c2ccc(F)cc2)n1` [Example 495] gave an IC50 of more than 1000 nM. `CC(C)NC(=O)c1csc(-c2oc(CN3CCN(C(=O)c4cc(F)c(Cl)cc4F)CC3)nc2-c2ccc(F)cc2)n1` [Example 496]: the IC50 is more than 1000 nM.

The compound `CCN(CC)c1ccc(C(=O)N2CCN(Cc3nc(-c4ccc(F)cc4)c(-c4nc(C(=O)NC(C)C)cs4)o3)CC2)cc1` [Example 497] had an IC50 not above 1000 nM.

The compound `COc1cc(/C=C/C(=O)N2CCN(Cc3nc(-c4ccc(F)cc4)c(-c4nc(C(=O)NC(C)C)cs4)o3)CC2)ccc1O` [Example 498] gave an IC50 not above 1000 nM. `COc1ccc(/C=C/C(=O)N2CCN(Cc3nc(-c4ccc(F)cc4)c(-c4nc(C(=O)NC(C)C)cs4)o3)CC2)cc1O` [Example 499] returned an IC50 not above 1000 nM. For `CCCCOc1ccc(C(=O)N2CCN(Cc3nc(-c4ccc(F)cc4)c(-c4nc(C(=O)NC(C)C)cs4)o3)CC2)cc1` [Example 500] the value was not above 1000 nM; for `CC(C)NC(=O)c1csc(-c2oc(CN3CCN(C(=O)c4cc5cc(Cl)ccc5o4)CC3)nc2-c2ccc(F)cc2)n1` [Example 501], more than 1000 nM.

As to `COc1ccc([N+](=O)[O-])c(C(=O)N2CCN(Cc3nc(-c4ccc(F)cc4)c(-c4nc(C(=O)NC(C)C)cs4)o3)CC2)c1` [Example 502], the IC50 is more than 1000 nM. With `COc1cc(C(=O)N2CCN(Cc3nc(-c4ccc(F)cc4)c(-c4nc(C(=O)NC(C)C)cs4)o3)CC2)cc(OC)c1O` [Example 503], the IC50 was not above 1000 nM. As for `CC(C)NC(=O)c1csc(-c2oc(CN3CCN(C(=O)c4ccccc4-c4ccccc4)CC3)nc2-c2ccc(F)cc2)n1` [Example 504], the IC50 is not above 1000 nM. Compound `CC(C)NC(=O)c1csc(-c2oc(CN3CCN(C(=O)c4cccc(Br)c4)CC3)nc2-c2ccc(F)cc2)n1` [Example 505] showed an IC50 of more than 1000 nM. `CC(C)NC(=O)c1csc(-c2oc(CN3CCN(C(=O)c4ccc(Br)cc4)CC3)nc2-c2ccc(F)cc2)n1` [Example 506] returned an IC50 of more than 1000 nM.

On to `CC(C)NC(=O)c1csc(-c2oc(CN3CCN(C(=O)c4cccc(Cl)c4[N+](=O)[O-])CC3)nc2-c2ccc(F)cc2)n1` [Example 507], for which the IC50 was not above 1000 nM. Regarding `CC(C)NC(=O)c1csc(-c2oc(CN3CCN(C(=O)C4N=CC([N+](=O)[O-])=CC=C4Cl)CC3)nc2-c2ccc(F)cc2)n1` (stereo not drawn) [Example 508], the IC50 was not above 1000 nM.

For `CC(C)NC(=O)c1csc(-c2oc(CN3CCN(C(=O)c4ccc([N+](=O)[O-])cc4Cl)CC3)nc2-c2ccc(F)cc2)n1` [Example 509], the IC50 was more than 1000 nM. For `CC(C)NC(=O)c1csc(-c2oc(CN3CCN(C(=O)c4ccc(Cl)cc4[N+](=O)[O-])CC3)nc2-c2ccc(F)cc2)n1` [Example 510] the value was more than 1000 nM. In turn, `CC(C)NC(=O)c1csc(-c2oc(CN3CCN(C(=O)c4ccc(Cl)c([N+](=O)[O-])c4)CC3)nc2-c2ccc(F)cc2)n1` [Example 511] registered an IC50 of more than 1000 nM. `CC(C)NC(=O)c1csc(-c2oc(CN3CCN(C(=O)c4cc(Cl)ccc4[N+](=O)[O-])CC3)nc2-c2ccc(F)cc2)n1` [Example 512] returned an IC50 of more than 1000 nM. For `CC(C)NC(=O)c1csc(-c2oc(CN3CCN(C(=O)c4cccc(Br)n4)CC3)nc2-c2ccc(F)cc2)n1` [Example 513] the value was more than 1000 nM. `CC(C)NC(=O)c1csc(-c2oc(CN3CCN(C(=O)c4cncc(Br)c4)CC3)nc2-c2ccc(F)cc2)n1` [Example 514] had a 50% inhibitory concentration (IC50) of more than 1000 nM. As to `CC(C)NC(=O)c1csc(-c2oc(CN3CCN(C(=O)c4cc(F)c(F)cc4[N+](=O)[O-])CC3)nc2-c2ccc(F)cc2)n1` [Example 515], the IC50 is not above 1000 nM. In turn, `CC(C)NC(=O)c1csc(-c2oc(CN3CCN(C(=O)Cc4ccc(C(F)(F)F)cc4)CC3)nc2-c2ccc(F)cc2)n1` [Example 516] showed an IC50 not above 1000 nM. For `CC(C)Cc1ccc(C(C)C(=O)N2CCN(Cc3nc(-c4ccc(F)cc4)c(-c4nc(C(=O)NC(C)C)cs4)o3)CC2)cc1` (stereo not drawn) [Example 517] the value was not above 1000 nM; for `CC(C)NC(=O)c1csc(-c2oc(CN3CCN(C(=O)c4cc(Cl)c(O)c(Cl)c4)CC3)nc2-c2ccc(F)cc2)n1` [Example 518], more than 1000 nM; for `CC(C)NC(=O)c1csc(-c2oc(CN3CCN(C(=O)c4c(F)c(F)c(F)c(F)c4F)CC3)nc2-c2ccc(F)cc2)n1` [Example 519], not above 1000 nM. Compound `COc1cc(OC)c(C(=O)N2CCN(Cc3nc(-c4ccc(F)cc4)c(-c4nc(C(=O)NC(C)C)cs4)o3)CC2)c(OC)c1` [Example 520] gave an IC50 not above 1000 nM. For `COc1cc(OC)c(C(=O)N2CCN(Cc3nc(-c4ccc(F)cc4)c(-c4nc(C(=O)NC(C)C)cs4)o3)CC2)cc1OC` [Example 521] the value was not above 1000 nM; for `COc1cc(C(=O)N2CCN(Cc3nc(-c4ccc(F)cc4)c(-c4nc(C(=O)NC(C)C)cs4)o3)CC2)cc(OC)c1OC` [Example 522], more than 1000 nM. As for `COc1ccc(C(=O)N2CCN(Cc3nc(-c4ccc(F)cc4)c(-c4nc(C(=O)NC(C)C)cs4)o3)CC2)c(OC)c1OC` [Example 523], the IC50 is not above 1000 nM. In the case of `CC(C)NC(=O)c1csc(-c2oc(CN3CCN(C(=O)c4ccccc4Cc4ccccc4)CC3)nc2-c2ccc(F)cc2)n1` [Example 524], the IC50 is not above 1000 nM. As for `CC(C)NC(=O)c1csc(-c2oc(CN3CCN(C(=O)c4cccc(Oc5ccccc5)c4)CC3)nc2-c2ccc(F)cc2)n1` [Example 525], the half-maximal inhibitory concentration (IC50) was more than 1000 nM. On to `CC(C)NC(=O)c1csc(-c2oc(CN3CCN(C(=O)c4ccccc4Oc4ccccc4)CC3)nc2-c2ccc(F)cc2)n1` [Example 526], for which the IC50 is more than 1000 nM. As to `CC(C)NC(=O)c1csc(-c2oc(CN3CCN(C(=O)c4ccc(Oc5ccccc5)cc4)CC3)nc2-c2ccc(F)cc2)n1` [Example 527], the IC50 was not above 1000 nM.

The compound `CC(C)NC(=O)c1csc(-c2oc(CN3CCN(C(=O)c4ccc(-c5ccc(O)cc5)cc4)CC3)nc2-c2ccc(F)cc2)n1` [Example 528] came in with an IC50 not above 1000 nM. Consider `Cc1cc(C(=O)N2CCN(Cc3nc(-c4ccc(F)cc4)c(-c4nc(C(=O)NC(C)C)cs4)o3)CC2)ccc1Br` [Example 529], for which the concentration for half-maximal inhibition (IC50) is more than 1000 nM. Take `Cc1ccc(C(=O)N2CCN(Cc3nc(-c4ccc(F)cc4)c(-c4nc(C(=O)NC(C)C)cs4)o3)CC2)cc1Br` [Example 530]: the IC50 was more than 1000 nM. With `CC(C)NC(=O)c1csc(-c2oc(CN3CCN(C(=O)Cc4ccc(Br)cc4)CC3)nc2-c2ccc(F)cc2)n1` [Example 531], the IC50 is not above 1000 nM. For `CC(C)NC(=O)c1csc(-c2oc(CN3CCN(C(=O)C4CCCN4C(=O)OC(C)(C)C)CC3)nc2-c2ccc(F)cc2)n1` (stereo not drawn) [Example 532], the IC50 was not above 1000 nM. In the case of `CC(C)NC(=O)c1csc(-c2oc(CN3CCN(C(=O)/C=C/c4ccccc4C(F)(F)F)CC3)nc2-c2ccc(F)cc2)n1` [Example 533], the IC50 was more than 1000 nM.

`CCOc1ccc2ccccc2c1C(=O)N1CCN(Cc2nc(-c3ccc(F)cc3)c(-c3nc(C(=O)NC(C)C)cs3)o2)CC1` [Example 534]: the IC50 is not above 1000 nM. For `CC(C)NC(=O)c1csc(-c2oc(CN3CCN(C(=O)C(NC(=O)OC(C)(C)C)C(C)C)CC3)nc2-c2ccc(F)cc2)n1` (stereo not drawn) [Example 535] the value was more than 1000 nM; for `CC(C)NC(=O)c1csc(-c2oc(CN3CCN(C(=O)C(NC(=O)OC(C)(C)C)C(C)C)CC3)nc2-c2ccc(F)cc2)n1` (stereo not drawn) [Example 536], more than 1000 nM; for `CC(C)NC(=O)c1csc(-c2oc(CN3CCN(C(=O)CCc4cccc(C(F)(F)F)c4)CC3)nc2-c2ccc(F)cc2)n1` [Example 537], more than 1000 nM. Regarding `CC1=NN(c2ccc(C(=O)N3CCN(Cc4nc(-c5ccc(F)cc5)c(-c5nc(C(=O)NC(C)C)cs5)o4)CC3)cc2)C(=O)C1` [Example 538], the IC50 was more than 1000 nM. For `Cc1nc(Br)sc1C(=O)N1CCN(Cc2nc(-c3ccc(F)cc3)c(-c3nc(C(=O)NC(C)C)cs3)o2)CC1` [Example 539] the value was more than 1000 nM; for `CC(C)NC(=O)c1csc(-c2oc(CN3CCN(C(=O)c4c5ccccc5cc5ccccc45)CC3)nc2-c2ccc(F)cc2)n1` [Example 540], more than 1000 nM; for `CC(C)NC(=O)c1csc(-c2oc(CN3CCN(C(=O)c4cc(C(C)C)cc(C(C)C)c4O)CC3)nc2-c2ccc(F)cc2)n1` [Example 541], more than 1000 nM. `CC(=O)NC(Cc1ccc(O)cc1)C(=O)N1CCN(Cc2nc(-c3ccc(F)cc3)c(-c3nc(C(=O)NC(C)C)cs3)o2)CC1` (stereo not drawn) [Example 542]: the IC50 was more than 1000 nM. In the case of `CC(C)NC(=O)c1csc(-c2oc(CN3CCN(C(=O)c4c(Cl)cc(Cl)cc4Cl)CC3)nc2-c2ccc(F)cc2)n1` [Example 543], the IC50 was more than 1000 nM.

Turning to `COc1cc(C(=O)N2CCN(Cc3nc(-c4ccc(F)cc4)c(-c4nc(C(=O)NC(C)C)cs4)o3)CC2)c([N+](=O)[O-])cc1OC` [Example 544], the IC50 was more than 1000 nM.

`CC(C)NC(=O)c1csc(-c2oc(CN3CCN(C(=O)c4ccc(OCc5ccccc5)cc4)CC3)nc2-c2ccc(F)cc2)n1` [Example 545] came in with an IC50 of more than 1000 nM.

For the origin of these results see patent US20060252807A1, “Novel ortho-terphenyl inhibitors of p38 kinase and methods of treating inflammatory disorders” (Kalypsys, Inc., priority 2005, published 2006).
